Results as given in article PMC11973759 (Journal for Immunotherapy of Cancer, 2025).

Tested on: M2 macrophages
Assay type: cell-based, human
Conditions: inhibitor 30 min, TB511 1 µM 1 h, 24 h fresh medium, n=3

In the case of CN(C)CCCN1c2ccccc2Sc2ccc(Cl)cc21 [CPZ, chlorpromazine], the “Effect of inhibitor on TB511-induced apoptosis (CCK8)” value is reported as “decreasing TB511-induced apoptosis”.

With C=C1[C@@H](C)[C@H]2[C@H](Cc3ccccc3)NC(=O)[C@]23[C@H](OC(C)=O)/C=C/[C@@](C)(O)C(=O)[C@@H](C)C/C=C/[C@H]3[C@@H]1O [CyD, cytochalasin D] the “Effect of inhibitor on TB511-induced apoptosis (CCK8)” value was “decreasing TB511-induced apoptosis”.
